# “Also recorded” adds a separate entry of the source.
# Assays:
# [1] = tested on: CD3+ T cells; assay: Trypan blue exclusion of MBP-stimulated cultures used for adoptive transfer; assay type: cell-based; conditions: 96 hours incubation, 40 mM added daily
# Protocol: (§1) Adoptive transfer EAE was induced by s.c. immunization of wild type PL/J mice housed in the UCI vivarium with 100 μg of bovine MBP (Sigma) emulsified in Complete Freund's Adjuvant containing 4 mg/ml heat-inactivated Mycobacterium tuberculosis (H37 RA; Difco, Detroit, Mich.) distributed over three spots on the hind flank. Splenocytes were harvested after 11 days and stimulated in vitro with 50 μg/ml MBP in the presence or absence of 40 mM N-Acetyl-D-glucosamine (Sigma) added daily. After 96 hours incubation, CD3^+ T cells were purified by negative selection (R&D Systems) and 3.5×10^6T-cells were injected i.p. into naïve PL/J Mgat5^+/− recipient mice. Trypan blue exclusion determined <3% dead cells under both culture conditions. The mice were scored daily for clinical signs over the next 30 days with the observer blinded to treatment conditions.
# (§2) Adoptive transfer EAE was induced by s.c. immunization of wild type PL/J mice housed in the UCI vivarium with 100 μg of bovine MBP (Sigma) emulsified in Complete Freund's Adjuvant containing 4 mg/ml heat-inactivated Mycobacterium tuberculosis (H37 RA; Difco, Detroit, Mich.) distributed over three spots on the hind flank. […] Trypan blue exclusion determined […] dead cells under both culture conditions. Mice were scored daily for clinical signs of EAE over the next 30 days with the observer blinded to treatment conditions.
# [2] = tested on: Jurkat T-cells; assay: LEA-FITC staining (poly-N-acetyllactosamine) of Jurkat T cells, FACS; assay type: cell-based, human; conditions: 3 days culture with supplement
# Protocol: (§3) Mice used for L-PHA staining and quantitative RT-PCR were sex and age matched. […] 129/Sv mice were from an original Mgat5 gene targeted population (28). All other mice (SJL, NOD, Balb/c and B10.S) were obtained from Jackson Laboratories. […] Mouse and Jurkat cells were stained with L-PHA and LEA by first blocking with PBA (2% bovine serum albumin/0.01% azide/PBS) for 10 min at 4° C. and then incubated with 4 μg/ml of L-PHA-FITC (Vector Laboratories Inc.) or 20 μg/ml of LEA-FITC (Sigma) in PBA for 40 min at 4° C. and analyzed by a BD FACSCalihur (BD Pharmingen, San Diego, Calif.). The level of lectin binding was normalized by untreated control and calculated as a percentage (Sample intensity/control intensity-1) %.
# (§4) Mice used for L-PHA staining and quantitative RT-PCR were sex and age matched. […] 129/Sv mice were from the original Mgat5 gene targeted population (28). All other mice (SJL, NOD, Balb/c and B10.S) were obtained from Jackson Laboratories. Mouse cells were stained with anti-CD4 (RM4-5), anti-CD8 (53-6.7), anti-CD45R (RA3-6B2) from eBioscience, and L-PHA (4 μg/ml) and LEA (20 μg/ml) from Sigma. […] Jurkat T-cells were cultured in either glutamine free RPMI 1640, 10% FBS, 10 mM/20 mM glucose or glucose/glutamine free DMEM base media supplemented with 10% FBS, 1.5 mM glucose. The indicated monosaccharides and/or metabolites were added daily except glucose which was added only at time zero.
# [3] = tested on: Jurkat T-cells; assay: L-PHA-FITC staining of Jurkat T cells cultured 3 days with monosaccharides, metabolites, Vitamin D3 or glycosidase inhibitors, FACS; assay type: cell-based, human; conditions: for Mgat5 N-glycans / β1,6GlcNAc-branched N-glycans expression (L-PHA staining): Jurkat T-cells, 3 days culture with supplement
# Protocol: as §3, §4
# [4] = tested on: splenocytes harvested from MBP immunized wild type PL/J mice; assay: Cytokine ELISA of supernatant from MBP re-stimulated splenocyte cultures; assay type: cell-based, mouse; conditions: MBP re-stimulation day 4, GlcNAc 40 mM
# Protocol: Supernatant from spleenocyte cultures used for adoptive transfer EAE at day 4 of stimulation with MBP in the presence or absence of GlcNAc (40 mM) were tested for INFγ levels. Microtiter plates were coated with 50 μl of anti-IFN-γ (1 μg/ml, clone AN-18; eBiosciences) overnight at 4° C. Supernatants were applied at 50 μl/well in duplicate and incubated for 2 hours at room temperature. Captured cytokines were detected using biotinylated anti-IFN-γ (1 μg/ml, clone R4-6A2; eBiosciences) and detected using Avidin Horse Radish Peroxidase (eBiosciences) at 1:500× dilution and o-Phenylenediamine dihydrochloride OPD tablets (Sigma) according to the manufacturer's protocols. […] Colorimetric change was measured at 450 nm on a microplate autoreader (Labsystems).
# Supernatant from splenocyte cultures used for adoptive transfer EAE at day 4 of stimulation with MBP in the presence or absence of GlcNAc (40 mM) were tested for IFN-γ and IL-6 levels. […] Captured cytokines were detected using biotinylated anti-IFN-γ (1 μg/ml, clone R4-6A2; eBiosciences) or anti-IL-6 (1 μg/ml, clone MP5-32C11; eBiosciences) and detected using Avidin Horse Radish Peroxidase (eBiosciences) at 1:500× dilution and o-Phenylenediamine dihydrochloride OPD tablets (Sigma) according to the manufacturer's protocols. […] Colorimetric change was measured at 450 nm on a microplate autoreader (Labsystems).
# [5] = tested on: splenocytes harvested from MBP immunized wild type PL/J mice; assay: L-PHA and LEA staining of splenocytes from MBP immunized PL/J mice re-stimulated with MBP; assay type: cell-based, mouse; conditions: MBP re-stimulation 4 days, GlcNAc 40 mM
# Protocol: as §1
# as §3, with “(28).” for “(28). All other mice (SJL, NOD, Balb/c and B10.S) were obtained from Jackson Laboratories.”, “The level of lectin binding was normalized by untreated control and calculated as a percentage (Sample intensity/control intensity-1) %.” left out
# [6] = tested on: naïve PL/J Mgat5+/− recipient mice; assay: Adoptive transfer EAE; assay type: in vivo, mouse; conditions: T-cells re-stimulated in vitro with GlcNAc 40 mM, scored 30 days
# Protocol: as §1, §2
# [7] = tested on: Jurkat T-cells; assay: MS/MS mass spectroscopy of sugar-nucleotide expression in Jurkat cell lysates; assay type: cell-based, human
# Protocol: Jurkat cell pellets (20×10^6) were resuspended in a cold 300 μl methanol:water (1:1) solution containing maltose as internal standard, vortexed for 10 seconds, and then pipetted into tubes containing 600 μl of chloroform:methanol (C:M) (3:2). Samples were vortexed for 1 minute, and then centrifuged at 14,000 rpm for 5 minutes at 4° C. Supernatants were collected, and an equal volume of C:M (1:1) was added, followed by a second extraction. The pooled aqueous fraction containing the hydrophilic metabolites was dried with a speedvac and stored at −80° C. Prior to injection, the samples were dissolved in 100 μl methanol:water (1:1). […] The metabolites were identified by their transitions in MS/MS, and quantified using the Analyte Software (SCIEX), which measured the area under the curve for the fragment ions corresponding to each parent ion. Quantities for the given substrates are graphed as pmole/min/10^6 cells.
# JurkaT-cell pellets (20×10^6) were resuspended in cold 300 μl methanol:water (1:1) solution containing maltose as an internal standard, vortexed for 10 seconds, and then pipetted into tubes containing 600 μl of chloroform:methanol (C:M) (3:2). […] The metabolites were identified by their transitions in MS/MS, and quantified using the Analyte Software (SCIEX), which measured the area under the curve for the fragment ions corresponding to each parent ion. […]
# [8] = tested on: human PBMCs; assay: L-PHA staining of human PBMCs / MS patient T cells; assay type: cell-based
# Protocol: Mononuclear cells were isolated from the blood of subjects using Histopaque-1077™ gradients (Sigma, Saint Louis, Mo.) and cultured in RPMI 1640 medium supplemented with 4 mM glutamine, 1 mM sodium pyruvate, 1% non-essential amino acids, 1% RPMI vitamins, 100 units/ml penicillin, 100 μg/ml streptomycin, and 50 μM […]. T lymphocytes were left unstimulated or were activated for 48 hours with 20 ng/ml anti-CD3 antibody (Biomeda, Foster City, Calif.) or a combination of 20 myelin peptides at […] myelin basic protein (MBP). The myelin peptides were immunodominant peptides from human proteolipid protein (PLP 30-49, PLP 40-60, PLP 95-118, PLP 118-150, PLP-180-189, PLP 185-206), human myelin oligodendrocyte glycoprotein (MOG 38-60, MOG 63-87, MOG 76-100, MOG 89-113, MOG 112-132 and MOG 162-188) and cryptic peptides from MBP (MBP 41-69, MBP 61-79, MBP 121-139 and MBP 131-149) and PLP (PLP 73-104, PLP 145-186, PLP 218-248 and PLP 241-272) that are not normally derived from antigen processing but may be made by extracellular proteolytic activity (57). Whole MBP was isolated from frozen guinea pig spinal cords (Harlan Bioproducts, Indianapolis, Ind.). […] The stained cells were analyzed on a FACScan (BD Biosciences, San Jose, Calif.) using the CellQuest software. […] Background fluorescence was subtracted for each population. […]
# [9] = tested on: T cell; conditions: cited from earlier work
# [10] = tested on: hepatoma cells; conditions: cited from earlier work
# [11] = tested on: EAE; conditions: mouse, in vivo; cited from earlier work
Compound,dead cells (Trypan blue exclusion) [1] [%],dead cells (Trypan blue exclusion) ([1]; listed as N-Acetyl-D-glucosamine) [%],poly-N-acetyllactosamine expression (LEA staining) [2],"Mgat5 N-glycans / β1,6GlcNAc-branched N-glycans expression (L-PHA staining) [3]",IL-6 secretion [4],INFγ production [4],"Mgat5 N-glycan / β1,6GlcNAc-branched N-glycans expression in re-stimulated splenocytes [5]",poly-N-acetyllactosamine expression in re-stimulated splenocytes [5],incidence of EAE following adoptive transfer of T-cells [6],severity of EAE following adoptive transfer of T-cells [6],intracellular UDP-GlcNAc levels [7],reversal of attenuated Mgat5 N-glycan expression in MS patients ([8]; MS patient T cells),Mgat5 modified glycan expression ([8]; human PBMCs),reversal of SW induced downregulation of Mgat5 glycans ([3]; Jurkat T cells with swainsonine),"synergy with anti-CD3 in up-regulating Mgat5 glycan levels ([3]; Jurkat T cells, anti-CD3)",INFγ production [9],T cell activation [9],TH1 differentiation [9],Mgat5 mRNA expression [10],EAE [11]
"CC(=O)N[C@H]1C(O)O[C@H](CO)[C@@H](O)[C@@H]1O (stereo partly drawn) [GlcNAc, N-acetyl-D-glucosamine]",< 5,< 3,dose dependently increased,dose dependently increased,promoted,inhibited,doubled; also recorded: increased,doubled; also recorded: increased,dramatically reduced,dramatically reduced,dramatically raised,,,,,,,,,
"C=C1/C(=C\C=C2/CCC[C@]3(C)[C@@H]([C@H](C)CCCC(C)(C)O)CC[C@@H]23)C[C@@H](O)C[C@@H]1O [Vitamin D3, 1α,25-Dihydroxyvitamin D3]",,,,enhanced; also recorded: increases,,,,,,,,reversed,enhanced,rescued; also recorded: reversed,synergized,inhibits,inhibits,inhibits,up-regulates,inhibits

# Reference: US9775859B2, “Methods and compositions for preventing and treating a disease related to glycan dysregulation” (Sinai Health System, priority 2005, dated 2017)
